According to the CheMixHub ionic liquid set:

Experiment: xn = mol fraction of the nth substance listed

Cn1cc[n+](CCC[n+]2ccn(C)c2)c1.[Br-].[Br-] + O=C[C@H](O)[C@@H](O)[C@H](O)[C@H](O)CO + O
viscosity [mPa·s], 101 kPa
Details	293.15 K	298.15 K	303.15 K	308.15 K	313.15 K
x1 = 0.0005066, x2 = 0.001798	1.061	0.945	0.846	0.764	0.696
x1 = 0.0005575, x2 = 0.001798	1.059	0.942	0.844	0.765	0.695
x1 = 0.0005912, x2 = 0	1.016	0.905	0.812	0.734	0.669
x1 = 0.0006805, x2 = 0	1.016	0.904	0.811	0.734	0.67
x1 = 0.0007464, x2 = 0.001797	1.065	0.947	0.848	0.768	0.698
x1 = 0.0007474, x2 = 0	1.019	0.908	0.816	0.739	0.673
x1 = 0.0009122, x2 = 0	1.025	0.913	0.82	0.74	0.675
x1 = 0.0009147, x2 = 0.001797	1.073	0.954	0.856	0.773	0.704
x1 = 0.001085, x2 = 0.001797	1.079	0.96	0.86	0.779	0.707
x1 = 0.001235, x2 = 0.001797	1.086	0.966	0.867	0.78	0.71
x1 = 0.00129, x2 = 0	1.043	0.927	0.832	0.754	0.686
x1 = 0.001332, x2 = 0.001796	1.083	0.963	0.863	0.782	0.712
x1 = 0.00144, x2 = 0	1.05	0.935	0.84	0.758	0.693
x1 = 0.001476, x2 = 0.001796	1.087	0.966	0.866	0.784	0.713
x1 = 0.001591, x2 = 0.001796	1.093	0.97	0.87	0.786	0.715
x1 = 0.001838, x2 = 0	1.066	0.948	0.85	0.768	0.7
x1 = 0.002094, x2 = 0	1.071	0.955	0.855	0.77	0.702
x1 = 0.002204, x2 = 0	1.071	0.955	0.857	0.774	0.705
x1 = 0.002491, x2 = 0	1.084	0.962	0.859	0.775	0.708

CCCC[P+](CCCC)(CCCC)CCCC.CS(=O)(=O)[O-] + O=S1(=O)CCCC1
101.33 kPa, x1 = 0.5
Details	viscosity [mPa·s]
303.15 K	136
313.15 K	84
323.15 K	50
333.15 K	34.6
343.25 K	24.6
353.25 K	18.7

CCCC[n+]1ccn(C)c1.N#C[N-]C#N + O=S(=O)([N-]S(=O)(=O)C(F)(F)F)C(F)(F)F.[Li+]
electrical conductivity [S/m], 101 kPa
Details	x1 = 0.8953	x1 = 0.9103	x1 = 0.942	x1 = 0.9606	x1 = 0.9799	x1 = 1
288.15 K	–	0.381	0.469	0.538	0.595	0.596
298.15 K	0.519	0.613	0.743	0.848	0.919	0.925
333.15 K	1.67	1.88	2.17	2.46	2.56	2.77

CCCC[n+]1ccn(C)c1.N#C[N-]C#N + O=S(=O)([O-])C(F)(F)F.[Li+]
101 kPa, x1 = 1
Details	electrical conductivity [S/m]
288.15 K	0.596
298.15 K	0.925
333.15 K	2.77

CCCC[n+]1ccn(C)c1.N#C[N-]C#N + O=[N+]([O-])[O-].[Li+]
electrical conductivity [S/m], 101 kPa
Details	x1 = 0.7634	x1 = 0.8104	x1 = 0.859	x1 = 0.9137	x1 = 0.9799	x1 = 1
288.15 K	–	0.155	0.246	0.377	0.599	0.596
298.15 K	0.193	0.272	0.417	0.612	0.924	0.925
333.15 K	0.902	1.17	1.47	1.95	2.6	2.77

CCCCCCCCCCCC[P+](CC)(CC)CC.N#Cc1ccc[n-]1 + OCC(O)CO
100 kPa
Details	electrical conductivity, 293.15 K [S/m]	electrical conductivity, 303.15 K [S/m]	electrical conductivity, 313.15 K [S/m]	viscosity, 293.15 K [mPa·s]	viscosity, 298.15 K [mPa·s]	viscosity, 303.15 K [mPa·s]	viscosity, 313.15 K [mPa·s]
x1 = 0.001	0.0008	0.0015	0.0028	–	–	–	–
x1 = 0.003	0.0025	0.0035	0.0061	1352	860	540	214
x1 = 0.005	0.0037	0.0051	0.0091	–	–	–	–
x1 = 0.007	0.0052	0.0065	0.0116	–	–	–	–
x1 = 0.01	0.0064	0.0076	0.0137	1415	910	573	230
x1 = 0.013	0.0076	0.0105	0.0192	–	–	–	–
x1 = 0.016	0.0081	0.0125	0.0233	–	–	–	–
x1 = 0.021	0.0086	0.0154	0.0287	–	–	–	–
x1 = 0.026	0.0096	0.0166	0.0312	1652	1024	620	254
x1 = 0.032	0.0102	0.0186	0.0342	–	–	–	–
x1 = 0.041	0.0111	0.0201	0.0368	2113	1316	790	321
x1 = 0.049	0.0122	0.0233	0.0429	–	–	–	–
x1 = 0.056	0.0129	0.0252	0.0463	2377	1481	910	364
x1 = 0.094	0.014	0.0256	0.0475	–	–	–	–
x1 = 0.139	0.012	0.0279	0.0522	2442	1568	1018	442
x1 = 0.196	–	–	–	2342	1501	960	423
x1 = 0.292	0.0092	0.0261	0.0495	1719	1114	730	336
x1 = 0.343	0.0092	0.0203	0.0398	1481	970	658	307
x1 = 0.426	–	–	–	1086	710	473	230
x1 = 0.481	0.0109	0.0206	0.0404	–	–	–	–
x1 = 0.542	–	–	–	940	638	443	231
x1 = 0.677	0.0131	0.0239	0.0453	860	600	425	214
x1 = 0.815	0.0183	0.0357	0.0635	623	441	321	164
x1 = 1	0.0267	0.0448	0.0786	422	296	212	117

CCCC[n+]1ccn(C)c1.N#C[N-]C#N + OCC(O)CO + O
viscosity [mPa·s], 101 kPa
Details	x2 = 0.00317, x3 = 0.9588	x2 = 0.005245, x3 = 0.8687	x2 = 0.006424, x3 = 0.955	x2 = 0.009764, x3 = 0.9511	x2 = 0.01072, x3 = 0.8605	x2 = 0.0132, x3 = 0.9472	x2 = 0.01645, x3 = 0.8519	x2 = 0.02243, x3 = 0.8428
313.15 K	1.38	1.68	1.46	1.53	1.72	1.59	1.78	1.81
333.15 K	1.25	1.33	1.29	1.34	1.37	1.39	1.41	1.43
353.15 K	1.03	1.15	1.03	1.07	1.17	1.08	1.22	1.34
